In ChEMBL document CHEMBL5236551, “Andrographolide and its derivatives: Current achievements and future perspectives” (Eur J Med Chem, 2021):
pEC50, pIC50: −log10 of the molar value. Each block holds one molecule with its values, some of them ahead of it.

Legend:
[1] = tested on: Mus musculus; experiment: Anti-inflammatory activity in BALB/c mouse model of colitis assessed as suppression of DSS-induced NF-kappa-B p65 expression in colon tissue at 200 mg/kg, IG for 8 days relative to control; format: functional; conditions: po, 192 h, time 8 day
[2] = Inhibition of NF-kappa-B signaling pathway in human HeLa cells assessed as decrease in phosphorylated NF-kappaB p65 level treated for 4 hrs by Western blot analysis; format: cell-based
[3] = tested on: Enterococcus faecalis; experiment: Antibacterial activity against Enterococcus faecalis assessed as bacterial growth inhibition incubated for 24 hrs; format: functional, organism-based
[4] = tested on: Escherichia coli; experiment: Antibacterial activity against Escherichia coli assessed as bacterial growth inhibition incubated for 24 hrs; format: functional, organism-based
[5] = tested on: Staphylococcus aureus; experiment: Antibacterial activity against Staphylococcus aureus assessed as bacterial growth inhibition incubated for 24 hrs; format: functional, organism-based
[6] = tested on: Human immunodeficiency virus 1; experiment: Antiviral activity against HIV-1 infected in human C8166 cells; format: functional, organism-based; conditions: Human immunodeficiency virus 1, C8166
[7] = tested on: Rattus norvegicus; experiment: Anti-fibrotic activity in rat model of bleomycin-induced lung fibrosis assessed as inhibition rate at 250 mg/kg relative to control; format: functional
[8] = tested on: Rattus norvegicus; experiment: Anti-fibrotic activity in rat model of unilateral ureteral obstruction-induced renal fibrosis assessed as inhibition rate at 0.15 mmol/Kg relative to control; format: functional; conditions: Kidney
[9] = tested on: Rattus norvegicus; experiment: Anti-fibrotic activity in rat model of isoproterenol-induced myocardial fibrosis assessed as inhibition rate at 15 mg/kg relative to control; format: functional; conditions: Myocardium
[10] = tested on: P388; experiment: Cytotoxicity against mouse P388 cells assessed as cell growth inhibition by SRB assay; format: functional; conditions: read-out: ED50 (the source's name)
[11] = tested on: KB; experiment: Cytotoxicity against human KB cells assessed as cell growth inhibition by SRB assay; format: functional; conditions: read-out: ED50 (the source's name)
[12] = tested on: Col2; experiment: Cytotoxicity against human Col2 cells assessed as cell growth inhibition by SRB assay; format: functional; conditions: read-out: ED50 (the source's name)
[13] = tested on: MCF7; experiment: Cytotoxicity against human MCF7 cells assessed as cell growth inhibition by SRB assay; format: functional; conditions: read-out: ED50 (the source's name)
[14] = Cytotoxicity against human Lu1 cells assessed as cell growth inhibition by SRB assay; format: functional; conditions: read-out: ED50 (the source's name)
[15] = Cytotoxicity against rat ASK cells assessed as cell growth inhibition by SRB assay; format: functional; conditions: read-out: ED50 (the source's name)
[16] = Antimigratory activity against human LX2 cells assessed as inhibition rate at 5 uM relative to control; format: functional; conditions: LX-2
[17] = Inhibition of TGF-beta1 induced mesenchymal transformation in human A549 cells assessed as inhibition rate at 0.63 uM relative to control; format: functional
[18] = Antimigratory activity against Ang II-induced human Cardiac fibroblast cells assessed as inhibition rate at 0.63 uM relative to control; format: functional
[19] = tested on: K562; experiment: Antiproliferative activity against human K562 cells assessed as cell growth inhibition measured after 24 hrs by MTT assay; format: functional, cell-based; conditions: K562, 24 h
[20] = tested on: MCF7; experiment: Antiproliferative activity against human MCF7 cells assessed as cell growth inhibition measured after 24 hrs by MTT assay; format: functional, cell-based
[21] = tested on: Rattus norvegicus; experiment: Anti-inflammatory activity against egg white-induced paw edema in rat model assessed as detumescence rate measured after 6 hrs relative to control; format: functional
[22] = tested on: HCT-116; experiment: Antiproliferative activity against human HCT-116 cells assessed as cell growth inhibition measured after 24 hrs by MTT assay; format: functional
[23] = tested on: NB-4; experiment: Antiproliferative activity against human NB-4 cells assessed as cell growth inhibition measured after 48 hrs by MTT assay; format: functional, cell-based; conditions: NB-4, 48 h
[24] = tested on: J82; experiment: Antiproliferative activity against human J82 cells assessed as cell growth inhibition measured after 48 hrs by MTT assay; format: functional, cell-based; conditions: J82, 48 h
[25] = tested on: T-24; experiment: Antiproliferative activity against human T24 cells assessed as cell growth inhibition measured after 48 hrs by MTT assay; format: functional, cell-based; conditions: T-24, 48 h
[26] = tested on: MCF7; experiment: Antiproliferative activity against human MCF7 cells assessed as cell growth inhibition measured after 48 hrs by MTT assay; format: functional, cell-based; conditions: MCF7, 48 h
[27] = tested on: HepG2; experiment: Antiproliferative activity against human HepG2 cells assessed as cell growth inhibition measured after 48 hrs by MTT assay; format: functional, cell-based; conditions: HepG2, 48 h
[28] = tested on: MGC-803; experiment: Antiproliferative activity against human MGC-803 cells assessed as cell growth inhibition measured after 48 hrs by MTT assay; format: functional, cell-based; conditions: MGC-803, 48 h
[29] = tested on: A549; experiment: Antiproliferative activity against human A549 cells assessed as cell growth inhibition measured after 48 hrs by MTT assay; format: functional, cell-based; conditions: A549, 48 h
[30] = Antiproliferative activity against human HCT cell line assessed as cell growth inhibition measured after 48 hrs by MTT assay; format: functional, cell-based
[31] = Antiproliferative activity against human NTUB1 cells assessed as cell growth inhibition measured after 48 hrs by MTT assay; format: functional, cell-based; conditions: NTUB1, 48 h

SMILES: C=C1CCC2[C@](C)(COC(C)=O)[C@H](OC(C)=O)CC[C@@]2(C)[C@@H]1C/C=C1/C(=O)OC[C@H]1OC(C)=O (stereo partly specified)
- inhibition in vivo at 200 mg/kg [1]: 50.4%

- pEC50 [2]: 5.70
SMILES: C=C1CC[C@@H]2[C@](C)(CO)[C@H](O)CC[C@@]2(C)[C@@H]1C/C=C1/C(=O)OC[C@@H]1Oc1ccc([N+](=O)[O-])cc1OC

SMILES: C=C1CCC2[C@](C)(CO)C(=O)CC[C@@]2(C)[C@@H]1C/C=C1/C(=O)OC[C@@H]1Oc1cccc2cccnc12 (stereo partly specified)
- pIC50 [3]: 5.04
- pIC50 [4]: 4.55
- pIC50 [5]: 4.56

- pIC50 [6]: 4.39
SMILES: C=C1CCC2[C@](C)(CO)/C(=N\O)CC[C@@]2(C)[C@@H]1/C=C/C1=CCOC1=O (stereo partly specified)

SMILES: C=C1CCC2[C@](C)(CO)[C@H](O)CC[C@@]2(C)[C@@H]1/C=C/C1=CC(=C\c2ccc(Cl)cc2)/OC1=O (stereo partly specified)
- inhibition in vivo at 250 mg/kg [7]: > 85%
- inhibition in vivo at 150 µmol/kg [8]: > 85%
- inhibition in vivo at 15 mg/kg [9]: > 90%

SMILES: C=C1CC[C@@H]2[C@](C)(CO[Si](C)(C)C(C)(C)C)[C@H](OC(C)=O)CC[C@@]2(C)[C@@H]1CC(OC(C)=O)C1=CCOC1=O (stereo partly specified)
- pEC50 [10]: 6.26
- pEC50 [11]: 5.63
- pEC50 [12]: 5.70
- pEC50 [13]: 5.67
- pEC50 [14]: 5.68
- pEC50 [15]: 5.70

SMILES: C[C@@]12CCC3[C@](C)(CO)[C@H](O)CC[C@@]3(C)[C@@H]1CC(C1=C/C(=C\c3ccc(Cl)cc3)OC1=O)O2 (stereo partly specified)
- inhibition at 5 µM [16]: > 60%
- inhibition at 0.63 µM [17]: > 70%
- inhibition at 0.63 µM [18]: > 65%

SMILES: C=C1CCC2[C@](C)(CO)[C@H](O)CC[C@@]2(C)[C@@H]1C/C=C1/C(=O)OC[C@@H]1Oc1cccc2cccnc12 (stereo partly specified)
- pIC50 [3]: 5.20
- pIC50 [4]: 4.67
- pIC50 [5]: 4.43

- pIC50 [19]: 5.10
SMILES: C=C1CCC2[C@]3(C)COC(c4ccc(OCc5cn(-c6ccc(C(C)=O)cc6)nn5)cc4)O[C@@H]3CC[C@@]2(C)[C@@H]1C/C=C1/C(=O)OCC1O (stereo partly specified)

- pIC50 [19]: 5.81
- pIC50 ([20]; MCF7, 24 h): 5.54
SMILES: C=C1CCC2[C@](C)(CO)[C@H](OC(=O)CCC(=O)OC(C)CCOc3no[n+]([O-])c3S(=O)(=O)c3ccccc3)CC[C@@]2(C)[C@@H]1/C=C/C1=CCOC1=O (stereo partly specified)

SMILES: C=C1CCC2[C@](C)(CO)[C@H](O)CC[C@@]2(C)[C@@H]1CCC1=CCOC1=O (stereo partly specified)
- inhibition (INH) [21]: 87.53%

- GI50 [22]: 4900 nM
- GI50 ([20]; MCF7, time 24 hrs): 5300 nM
SMILES: C=C1CCC2[C@]3(C)COC(c4ccccc4Br)O[C@@H]3CC[C@@]2(C)[C@@H]1C/C=C1/C(=O)OC[C@H]1O (stereo partly specified)

- pIC50 [26]: 5.92
- pIC50 [27]: 5.64
- pIC50 [28]: 5.73
- pIC50 [29]: 5.69
SMILES: CC1=C2[C@H]3O[C@]34CC[C@@H]3[C@](C)(COC(=O)c5ccccc5)[C@H](OC(=O)c5ccccc5)CC[C@@]3(C)[C@@H]4[C@H]3O[C@@]23OC1=O
- pIC50 [23]: 6.06
- pIC50 [24]: 5.69
- pIC50 [25]: 5.98
- pIC50 [30]: 6.03
- pIC50 [31]: 6.26
